From US10597388B2, “Pyridazinone herbicides” (FMC CORPORATION, priority 2014, dated 2020)

Key:
Type in all cases: in vivo
[1] = test system: galium (catchweed bedstraw, Galium aparine); assay: Test C greenhouse herbicide test, pre- and postemergence
Method in brief: (§1)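 Preemergence: seeds sown in a loam soil–sand blend and sprayed with test chemicals in a non-phytotoxic solvent mixture containing surfactant. Postemergence: plants grown in peat-based medium and treated at 2 to 18 cm (1- to 4-leaf stage). After 13 to 15 d in a greenhouse, injury was visually rated 0–100 against controls.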

[2] = test system: ragweed (common ragweed, Ambrosia elatior); assay: as above
Method in brief: as §1

[3] = test system: ryegrass, Italian (Italian ryegrass, Lolium multiflorum); assay: as above
Method in brief: as §1

[4] = test system: soybean (Glycine max); assay: as above
Method in brief: as §1

[5] = test system: galium (catchweed bedstraw, Galium aparine); assay: Test A greenhouse herbicide test, postemergence; conditions: for Plant response rating, Galium: 125 g ai/ha, 0 to 100 scale where 0 is no effect and 100 is complete control; for Galium plant response rating: 500 g ai/ha, 0 to 100 scale, 0 is no effect, 100 is complete control
Method in brief: (§2)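 Plants grown in loam soil/sand blend pots were treated postemergence at 2 to 10 cm height, one- to two-leaf stage, with formulated test chemicals. After approximately 10 d in a greenhouse, injury was rated visually against untreated controls on a 0 to 100 scale (0 no effect, 100 complete control).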

[6] = test system: blackgrass (Alopecurus myosuroides); assay: Test A greenhouse herbicide test, postemergence; conditions: for Plant response rating, Blackgrass: 125 g ai/ha, 0 to 100 scale where 0 is no effect and 100 is complete control; for Blackgrass plant response rating: 500 g ai/ha, 0 to 100 scale, 0 is no effect, 100 is complete control
Method in brief: as §2

[7] = test system: corn (Zea mays); assay: Test A greenhouse herbicide test, pre- and postemergence; conditions: Postemergence; for Plant response rating, Corn: 125 g ai/ha, 0 to 100 scale where 0 is no effect and 100 is complete control; for Corn plant response rating: 500 g ai/ha, 0 to 100 scale, 0 is no effect, 100 is complete control
Method in brief: (§3)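 Seeds sown in loam–sand blend got a preemergence directed soil spray of compound in non-phytotoxic solvent with surfactant. Postemergence treatment was given at 2–10 cm, one- to two-leaf stage. After ~10 d in greenhouse, injury was rated visually vs untreated controls, 0 (no effect) to 100 (complete control).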

[8] = test system: ragweed (common ragweed, Ambrosia elatior); assay: as above
Method in brief: as §3

[9] = test system: wheat (Triticum aestivum); assay: as above; conditions: Postemergence; for Plant response rating, Wheat: 125 g ai/ha, 0 to 100 scale where 0 is no effect and 100 is complete control; for Wheat plant response rating: 500 g ai/ha, 0 to 100 scale, 0 is no effect, 100 is complete control
Method in brief: as §3

[10] = test system: kochia (Kochia scoparia); assay: as above
Method in brief: as §3

[11] = test system: foxtail, giant (giant foxtail, Setaria faberii); assay: as above
Method in brief: as §3

[12] = test system: ryegrass, Italian (Italian ryegrass, Lolium multiflorum); assay: as above
Method in brief: as §3

[13] = Postemergence, 125 g ai/ha, scale 0 to 100, 0 is no effect, 100 is complete control
[14] = Postemergence, 250 g ai/ha, scale 0 to 100, 0 no effect, 100 complete control, 13 to 15 d
[15] = Preemergence, 31 g ai/ha, scale 0 to 100, 0 is no effect, 100 is complete control
[16] = Preemergence, 62 g ai/ha, scale 0 to 100, 0 is no effect, 100 is complete control
[17] = Preemergence, 125 g ai/ha, scale 0 to 100, 0 is no effect, 100 is complete control
[18] = Preemergence, 250 g ai/ha, scale 0 to 100 (0 no effect, 100 complete control)
[19] = postemergence, 62 g ai/ha, scale 0 to 100, 0 no effect, 100 complete control
[20] = Postemergence, 125 g ai/ha, 0 to 100 scale where 0 is no effect and 100 is complete control
[21] = Postemergence, 500 g ai/ha, 0 to 100 scale, 0 is no effect, 100 is complete control
[22] = Preemergence, 125 g ai/ha, 0 to 100 scale where 0 is no effect and 100 is complete control
[23] = Preemergence, 500 g ai/ha, 0 to 100 scale where 0 is no effect and 100 is complete control

Cc1cc(C)c2sc(C)c(-c3c(OC(=O)OCCCl)c(C)nn(C)c3=O)c2c1 [Compound 85]
Plant response rating, Galium [1, 13]: 100
Plant response rating, Galium [1, 14]: 100
Plant response rating, Galium [1, 15]: 90
Plant response rating, Galium [1, 16]: 90
Plant response rating, Galium [1, 17]: 95
Galium plant response rating [1, 18]: 95
Galium plant response rating [1, 19]: 100
Plant response rating, Ragweed [2, 13]: 85
Plant response rating, Ragweed [2, 14]: 90
Plant response rating, Ragweed [2, 15]: 80
Plant response rating, Ragweed [2, 16]: 90
Plant response rating, Ragweed [2, 17]: 98
Ragweed plant response rating [2, 18]: 98
Ragweed plant response rating [2, 19]: 85
Plant response rating, Ryegrass, Italian [3, 13]: 90
Plant response rating, Ryegrass, Italian [3, 14]: 95
Plant response rating, Ryegrass, Italian [3, 15]: 85
Plant response rating, Ryegrass, Italian [3, 16]: 85
Plant response rating, Ryegrass, Italian [3, 17]: 90
Ryegrass, Italian plant response rating [3, 18]: 90
Ryegrass, Italian plant response rating [3, 19]: 90
Plant response rating, Soybean [4, 13]: 0
Plant response rating, Soybean [4, 14]: 15
Plant response rating, Soybean [4, 15]: 0
Plant response rating, Soybean [4, 16]: 0
Plant response rating, Soybean [4, 17]: 0
Soybean plant response rating [4, 18]: 0
Soybean plant response rating [4, 19]: 0
Plant response rating, Galium [5]: 90
Galium plant response rating [5]: 100
Plant response rating, Blackgrass [6]: 90
Blackgrass plant response rating [6]: 90
Plant response rating, Corn [7]: 0
Corn plant response rating [7]: 0
Plant response rating, Ragweed [8, 20]: 90
Ragweed plant response rating [8, 21]: 90
Ragweed plant response rating [8, 22]: 90
Plant response rating, Ragweed [8, 23]: 90
Plant response rating, Wheat [9]: 0
Wheat plant response rating [9]: 0
Plant response rating, Kochia [10, 20]: 30
Kochia plant response rating [10, 21]: 70
Kochia plant response rating [10, 22]: 0
Plant response rating, Kochia [10, 23]: 30
Plant response rating, Foxtail, Giant [11, 20]: 90
Foxtail, Giant plant response rating [11, 21]: 90
Foxtail, Giant plant response rating [11, 22]: 100
Plant response rating, Foxtail, Giant [11, 23]: 100
Plant response rating, Ryegrass, Italian [12, 20]: 90
Ryegrass, Italian plant response rating [12, 21]: 90
Ryegrass, Italian plant response rating [12, 22]: 100
Plant response rating, Ryegrass, Italian [12, 23]: 100

C#CCOC(=O)Oc1c(C)nn(C)c(=O)c1-c1c(C)sc2ccc(C)cc12 [Compound 87]
Plant response rating, Galium [1, 13]: 95
Plant response rating, Galium [1, 14]: 98
Plant response rating, Galium [1, 15]: 95
Plant response rating, Galium [1, 16]: 95
Plant response rating, Galium [1, 17]: 98
Galium plant response rating [1, 18]: 98
Galium plant response rating [1, 19]: 95
Plant response rating, Ragweed [2, 13]: 95
Plant response rating, Ragweed [2, 14]: 100
Plant response rating, Ragweed [2, 15]: 90
Plant response rating, Ragweed [2, 16]: 90
Plant response rating, Ragweed [2, 17]: 95
Ragweed plant response rating [2, 18]: 90
Ragweed plant response rating [2, 19]: 95
Plant response rating, Ryegrass, Italian [3, 13]: 85
Plant response rating, Ryegrass, Italian [3, 14]: 85
Plant response rating, Ryegrass, Italian [3, 15]: 35
Plant response rating, Ryegrass, Italian [3, 16]: 90
Plant response rating, Ryegrass, Italian [3, 17]: 90
Ryegrass, Italian plant response rating [3, 18]: 90
Ryegrass, Italian plant response rating [3, 19]: 80
Plant response rating, Soybean [4, 13]: 10
Plant response rating, Soybean [4, 14]: 5
Plant response rating, Soybean [4, 15]: 0
Plant response rating, Soybean [4, 16]: 0
Plant response rating, Soybean [4, 17]: 100
Soybean plant response rating [4, 18]: 0
Soybean plant response rating [4, 19]: 0
Plant response rating, Galium [5]: 90
Galium plant response rating [5]: 90
Plant response rating, Blackgrass [6]: 80
Blackgrass plant response rating [6]: 80
Plant response rating, Corn [7]: 0
Corn plant response rating [7]: 0
Plant response rating, Ragweed [8, 20]: 80
Ragweed plant response rating [8, 21]: 90
Ragweed plant response rating [8, 22]: 70
Plant response rating, Ragweed [8, 23]: 80
Plant response rating, Wheat [9]: 0
Wheat plant response rating [9]: 0
Plant response rating, Kochia [10, 20]: 90
Kochia plant response rating [10, 21]: 90
Kochia plant response rating [10, 22]: 80
Plant response rating, Kochia [10, 23]: 90
Plant response rating, Foxtail, Giant [11, 20]: 70
Foxtail, Giant plant response rating [11, 21]: 80
Foxtail, Giant plant response rating [11, 22]: 80
Plant response rating, Foxtail, Giant [11, 23]: 100
Plant response rating, Ryegrass, Italian [12, 20]: 80
Ryegrass, Italian plant response rating [12, 21]: 80
Ryegrass, Italian plant response rating [12, 22]: 90
Plant response rating, Ryegrass, Italian [12, 23]: 100

CC(=O)Oc1c(C)nn(C)c(=O)c1-c1ccc(F)c2ccccc12 [Compound 90]
Plant response rating, Galium [1, 13]: 95
Plant response rating, Galium [1, 14]: 95
Galium plant response rating [1, 19]: 95
Plant response rating, Ragweed [2, 13]: 95
Plant response rating, Ragweed [2, 14]: 100
Plant response rating, Ragweed [2, 15]: 80
Plant response rating, Ragweed [2, 16]: 90
Plant response rating, Ragweed [2, 17]: 85
Ragweed plant response rating [2, 18]: 95
Ragweed plant response rating [2, 19]: 85
Plant response rating, Ryegrass, Italian [3, 13]: 90
Plant response rating, Ryegrass, Italian [3, 14]: 90
Plant response rating, Ryegrass, Italian [3, 15]: 90
Plant response rating, Ryegrass, Italian [3, 16]: 95
Plant response rating, Ryegrass, Italian [3, 17]: 95
Ryegrass, Italian plant response rating [3, 18]: 95
Ryegrass, Italian plant response rating [3, 19]: 90
Plant response rating, Soybean [4, 13]: 55
Plant response rating, Soybean [4, 14]: 70
Plant response rating, Soybean [4, 15]: 0
Plant response rating, Soybean [4, 16]: 0
Plant response rating, Soybean [4, 17]: 10
Soybean plant response rating [4, 18]: 100
Soybean plant response rating [4, 19]: 50
Plant response rating, Galium [5]: 100
Galium plant response rating [5]: 100
Plant response rating, Blackgrass [6]: 70
Blackgrass plant response rating [6]: 90
Plant response rating, Corn [7]: 20
Corn plant response rating [7]: 30
Plant response rating, Ragweed [8, 20]: 100
Ragweed plant response rating [8, 21]: 100
Ragweed plant response rating [8, 22]: 90
Plant response rating, Ragweed [8, 23]: 100
Plant response rating, Wheat [9]: 20
Wheat plant response rating [9]: 30
Plant response rating, Kochia [10, 20]: 100
Kochia plant response rating [10, 21]: 100
Kochia plant response rating [10, 22]: 70
Plant response rating, Kochia [10, 23]: 100
Plant response rating, Foxtail, Giant [11, 20]: 80
Foxtail, Giant plant response rating [11, 21]: 100
Foxtail, Giant plant response rating [11, 22]: 50
Plant response rating, Foxtail, Giant [11, 23]: 100
Plant response rating, Ryegrass, Italian [12, 20]: 100
Ryegrass, Italian plant response rating [12, 21]: 100
Ryegrass, Italian plant response rating [12, 22]: 100
Plant response rating, Ryegrass, Italian [12, 23]: 100
